According to patent publication US20150141381A1, “TETRACYCLINE COMPOUNDS HAVING TARGET THERAPEUTIC ACTIVITIES” (Paratek Pharmaceuticals, Inc., priority 2001, published 2015):
Read-outs that look alike come from different tables or passages of the source.

Experiments:
E. coli mL308 225 = assay: In Vitro Anti-Bacterial Activity Assay (MIC), gram negative; format: cell-based; conditions: for MIC: Escherichia coli, ML308225, 18 h
S. aureus RN450 = assay: In Vitro Anti-Bacterial Activity Assay (MIC), gram positive; format: cell-based; conditions: for MIC: Staphylococcus aureus, RN450, 18 h
[1] = gram negative bacteria, read-out: Antibiotic Activity Gram − (MIC)
[2] = gram positive bacteria, read-out: Antibiotic Activity Gram + (MIC)
[3] = MIC class, Table 3, read-out: Antibiotic Activity Gram −
[4] = MIC class, Table 3, read-out: Antibiotic Activity Gram +
[5] = MIC class, Table 3 (Continued), read-out: Gram− activity
[6] = MIC class, Table 3 (Continued), read-out: Gram+ activity

SMILES | MIC (E. coli mL308 225; [1]) [µg/mL] | MIC (S. aureus RN450; [2]) [µg/mL] | MIC (E. coli mL308 225; [3]) [µg/mL] | MIC (S. aureus RN450; [4]) [µg/mL] | also measured
CN(C)[C@@H]1C(O)=C(C(N)=O)C(=O)[C@@]2(O)C(O)=C3C(=O)c4c(O)ccc(-c5cccc(NC(=O)c6ccno6)c5)c4C[C@H]3C[C@@H]12 | > 4 | < 4 | – | – | –
CN(C)[C@@H]1C(O)=C(C(N)=O)C(=O)[C@@]2(O)C(O)=C3C(=O)c4c(ccc(NC5CCNCC5)c4O)C[C@H]3C[C@@H]12 [LE] | – | – | > 4 | > 4 | –
CN(C)c1ccc(OCc2ccccc2)c2c1C[C@H]1C[C@H]3[C@H](N(C)C)C(OCc4ccccc4)=C(C(N)=O)C(=O)[C@@]3(O)C(O)=C1C2=O [ON] | – | – | > 4 | > 4 | –
CCCNCc1ccc(OC)c(-c2ccc(O)c3c2C[C@H]2C[C@H]4C(N(C)C)C(O)=C(C(N)=O)C(=O)[C@@]4(O)C(O)=C2C3=O)c1 (stereo partly shown) [EF] | – | – | < 4 | < 4 | –
CN(C)[C@@H]1C(O)=C(C(N)=O)C(=O)[C@@]2(O)C(O)=C3C(=O)c4c(O)ccc(CNCc5ccccc5)c4C[C@H]3C[C@@H]12 | < 4 | < 4 | – | – | –
CN(C)c1cc(CNC2CCCC2)c(O)c2c1C[C@H]1C[C@H]3[C@H](N(C)C)C(O)=C(C(N)=O)C(=O)[C@@]3(O)C(O)=C1C2=O | > 4 | < 4 | – | – | –
CN(C)[C@@H]1C(O)=C(C(N)=O)C(=O)[C@@]2(O)C(O)=C3C(=O)c4c(O)ccc(-c5ccc(CNc6ccccc6)cc5)c4C[C@H]3C[C@@H]12 | > 4 | < 4 | – | – | –
CN(C)[C@@H]1C(O)=C(C(N)=O)C(=O)[C@@]2(O)C(O)=C3C(=O)c4c(O)ccc(-c5ccoc5)c4C[C@H]3C[C@@H]12 [drawing 3287] | – | – | – | – | MIC (E. coli mL308 225; [5]): < 4 µg/mL; MIC (S. aureus RN450; [6]): < 4 µg/mL
CN(C)c1cc(-c2ccc(Cl)c(Cl)c2)c(O)c2c1C[C@H]1C[C@H]3[C@H](N(C)C)C(O)=C(C(N)=O)C(=O)[C@@]3(O)C(O)=C1C2=O [AI] | – | – | > 4 | < 4 | –
CN(C)c1cc(NCc2ccc(OC(F)(F)F)cc2)c(O)c2c1C[C@H]1C[C@H]3[C@H](N(C)C)C(O)=C(C(N)=O)C(=O)[C@@]3(O)C(O)=C1C2=O | > 4 | < 4 | – | – | –
C[C@H]1c2ccc(-c3cccc(C=O)c3)c(O)c2C(=O)C2=C(O)[C@]3(O)C(=O)C(C(N)=O)=C(O)[C@@H](N(C)C)[C@@H]3[C@@H](O)[C@@H]21 | < 4 | < 4 | – | – | –
CN(C)C1C(O)=C(C(N)=O)C(=O)[C@@]2(O)C(O)=C3C(=O)c4c(O)ccc(-c5ccc(CNCc6ccccc6)o5)c4C[C@H]3C[C@@H]12 (stereo partly shown) [LL] | – | – | < 4 | < 4 | –
C[C@H]1c2cccc(O)c2C(=O)C2=C(O)[C@]3(O)C(=O)C(C(N)=O)=C(O)[C@@H](N(C)C)[C@@H]3[C@@H](OC(=O)CCN3CCCC3)[C@@H]21 [R] | – | – | < 4 | < 4 | –
CN(C)c1cc(CNC(=O)C(C)(C)C)c(O)c2c1C[C@H]1C[C@H]3[C@H](N(C)C)C(O)=C(C(N)=O)C(=O)[C@@]3(O)C(O)=C1C2=O | > 4 | < 4 | – | – | –
CN(C)[C@@H]1C(O)=C(C(N)=O)C(=O)[C@@]2(O)C(O)=C3C(=O)c4c(O)ccc(-c5ccc(CNCC(F)(F)F)cc5)c4C[C@H]3C[C@@H]12 [drawing 3506] | – | – | – | – | Antibiotic Activity Gram − (MIC) (E. coli mL308 225; gram negative bacteria): ** (compounds with MIC less than or equal to 4 μg/ml are indicated with **); Antibiotic Activity Gram + (MIC) (S. aureus RN450; gram positive bacteria): ** (compounds with MIC less than or equal to 4 μg/ml are indicated with **)
CN(C)[C@@H]1C(O)=C(C(N)=O)C(=O)[C@@]2(O)C(O)=C3C(=O)c4c(O)cc(Cl)c(N)c4C[C@H]3C[C@@H]12 | > 4 | > 4 | – | – | –
COc1ccc(CN(C)C)cc1-c1ccc(O)c2c1C[C@H]1C[C@H]3[C@H](N(C)C)C(O)=C(C(N)=O)C(=O)[C@@]3(O)C(O)=C1C2=O [CJ] | – | – | < 4 | < 4 | –
CCOC(=O)/C(I)=C/C(=C/c1ccc(O)c2c1C[C@H]1C[C@H]3[C@H](N(C)C)C(O)=C(C(N)=O)C(=O)[C@@]3(O)C(O)=C1C2=O)C(=O)OCC [AX] | – | – | > 4 | > 4 | –
CN(C)c1cc(NC(=N)NCc2ccccc2)c(O)c2c1C[C@H]1C[C@H]3C(N(C)C)C(O)=C(C(N)=O)C(=O)[C@@]3(O)C(O)=C1C2=O (stereo partly shown) [GM] | – | – | > 4 | > 4 | –
CCCCOC(=O)Nc1cc(N(C)C)c2c(c1O)C(=O)C1=C(O)[C@]3(O)C(=O)C(C(N)=O)=C(O)[C@@H](N(C)C)[C@@H]3C[C@@H]1C2 | < 4 | < 4 | – | – | –
CC(C)ONC(C)c1ccc(O)c2c1C[C@H]1C[C@H]3[C@H](N(C)C)C(O)=C(C(N)=O)C(=O)[C@@]3(O)C(O)=C1C2=O (stereo partly shown) | < 4 | < 4 | – | – | –
CCOC(=O)CNCc1ccc(-c2ccc(O)c3c2C[C@H]2C[C@H]4[C@H](N(C)C)C(O)=C(C(N)=O)C(=O)[C@@]4(O)C(O)=C2C3=O)c2ccccc12 | < 4 | < 4 | – | – | –

SMILES | MIC (E. coli mL308 225; [1]) [µg/mL] | MIC (S. aureus RN450; [2]) [µg/mL] | MIC (E. coli mL308 225; [3]) [µg/mL] | MIC (S. aureus RN450; [4]) [µg/mL] | also measured
CN(C)c1ccc(O)c2c1C[C@H]1C[C@H]3[C@H]([N+](C)(C)C)C(O)=C(C(N)=O)C(=O)[C@@]3(O)C(O)=C1C2=O | > 4 | < 4 | – | – | –
CN(C)c1cc(NCc2ccccc2OC(C)(C)C)c(O)c2c1C[C@H]1C[C@H]3[C@H](N(C)C)C(O)=C(C(N)=O)C(=O)[C@@]3(O)C(O)=C1C2=O | > 4 | < 4 | – | – | –
CN(C)[C@@H]1C(O)=C(C(N)=O)C(=O)[C@@]2(O)C(O)=C3C(=O)c4c(O)c(-c5ccc6c(c5)OCO6)cc(-c5ccc6c(c5)OCO6)c4C[C@H]3C[C@@H]12 | > 4 | < 4 | – | – | –
CC1CCN(Cc2cc(N(C)C)c3c(c2O)C(=O)C2=C(O)[C@]4(O)C(=O)C(C(N)=O)=C(O)[C@@H](N(C)C)[C@@H]4C[C@@H]2C3)CC1 | < 4 | < 4 | – | – | –
CN(C)[C@@H]1C(O)=C(C(N)=O)C(=O)[C@@]2(O)C(O)=C3C(=O)c4c(O)c(NC(=O)OCC(C)(C)C)cc(CN)c4C[C@H]3C[C@@H]12 [HP] | – | – | > 4 | > 4 | –
CN(C)c1cc(CNC(=O)OCC(Cl)(Cl)Cl)c(O)c2c1C[C@H]1C[C@H]3[C@H](N(C)C)C(O)=C(C(N)=O)C(=O)[C@@]3(O)C(O)=C1C2=O [FI] | – | – | > 4 | < 4 | –
CCC(=O)c1ccc(O)c2c1C[C@H]1C[C@H]3[C@H](N(C)C)C(O)=C(C(N)=O)C(=O)[C@@]3(O)C(O)=C1C2=O [EA] | – | – | < 4 | < 4 | –
C=C(Cl)c1ccc(O)c2c1C[C@H]1C[C@H]3[C@H](N(C)C)C(O)=C(C(N)=O)C(=O)[C@@]3(O)C(O)=C1C2=O [AW] | – | – | < 4 | < 4 | –
CCCOc1cccc2c1C(=O)C1=C(O)[C@]3(O)C(=O)C(C(N)=O)=C(O)[C@@H](N(C)C)[C@@H]3C[C@@H]1C2 [drawing 3578] | > 4 | > 4 | – | – | –
CC(=O)NCc1cc(N(C)C)c2c(c1O)C(=O)C1=C(O)[C@]3(O)C(=O)C(C(N)=O)=C(O)C(N(C)C)[C@@H]3C[C@@H]1C2 (stereo partly shown) [DR] | – | – | > 4 | < 4 | –
CN(C)c1cc(C#Cc2cccc(O)c2)c(O)c2c1C[C@H]1C[C@H]3[C@H](N(C)C)C(O)=C(C(N)=O)C(=O)[C@@]3(O)C(O)=C1C2=O [AJ] | – | – | > 4 | < 4 | –
CN(C)c1cc(CN(Cc2ccn[nH]2)Cc2ccn[nH]2)c(O)c2c1C[C@H]1C[C@H]3[C@H](N(C)C)C(O)=C(C(N)=O)C(=O)[C@@]3(O)C(O)=C1C2=O | > 4 | > 4 | – | – | –
CN(C)[C@@H]1C(O)=C(C(N)=O)C(=O)[C@@]2(O)C(O)=C3C(=O)c4c(O)ccc(C#Cc5ccc(N(O)O)cc5)c4C[C@H]3C[C@@H]12 | – | – | – | – | MIC (E. coli mL308 225; [5]): < 4 µg/mL; MIC (S. aureus RN450; [6]): < 4 µg/mL
CN(C)c1cc(CNC(=O)C2(N)CC2)c(O)c2c1C[C@H]1C[C@H]3[C@H](N(C)C)C(O)=C(C(N)=O)C(=O)[C@@]3(O)C(O)=C1C2=O | > 4 | < 4 | – | – | –
CO/N=C/c1ccc(OC)c(-c2ccc(O)c3c2C[C@H]2C[C@H]4[C@H](N(C)C)C(O)=C(C(N)=O)C(=O)[C@@]4(O)C(O)=C2C3=O)c1 | < 4 | < 4 | – | – | –
CN(C)Cc1ccc(-c2ccc(O)c3c2C[C@H]2C[C@H]4[C@@H](N(C)C)C(O)=C(C(N)=O)C(=O)[C@@]4(O)C(O)=C2C3=O)c2ccccc12 [K] | – | – | < 4 | < 4 | –
C[C@H]1c2cccc(O)c2C(=O)C2=C(O)[C@]3(O)C(=O)C(C(N)=O)=C(O)[C@@H](N(C)C)[C@@H]3[C@@H](O)[C@@H]21 [A] | – | – | < 4 | < 4 | –
COc1ccc(CNCCN(C)C)cc1-c1ccc(O)c2c1C[C@H]1C[C@H]3[C@H](N(C)C)C(O)=C(C(N)=O)C(=O)[C@@]3(O)C(O)=C1C2=O [GA] | – | – | > 4 | < 4 | –
CN(C)c1cc(CCC2(O)CCCC2)c(O)c2c1C[C@H]1C[C@H]3[C@H](N(C)C)C(O)=C(C(N)=O)C(=O)[C@@]3(O)C(O)=C1C2=O | > 4 | > 4 | – | – | –
CN(C)c1cc(NC(=O)Oc2ccc(O)cc2)c(O)c2c1C[C@H]1C[C@H]3[C@H](N(C)C)C(O)=C(C(N)=O)C(=O)[C@@]3(O)C(O)=C1C2=O | – | – | – | – | MIC (E. coli mL308 225; read-out: Antibiotic Activity Gram − (MIC)): > 4 µg/mL; MIC (S. aureus RN450; read-out: Antibiotic Activity Gram + (MIC)): > 4 µg/mL
CN(C)c1ccc(-c2cc(N)c(O)c3c2C[C@H]2C[C@H]4[C@@H](N(C)C)C(O)=C(C(N)=O)C(=O)[C@@]4(O)C(O)=C2C3=O)cc1 [ID] | – | – | > 4 | < 4 | –
CN(C)[C@@H]1C(O)=C(C(N)=O)C(=O)[C@@]2(O)C(O)=C3C(=O)c4c(O)ccc(-c5ccc(/C=N/O)o5)c4C[C@H]3C[C@@H]12 [NA] | – | – | < 4 | < 4 | –
